Experimental data: patent US20100291592A1, “NOVEL MARKER FOR SENSITIVITY AGAINST SULFONAMIDE COMPOUND” (priority 2006, published 2010)

Legend:
Assay type in all cases: in vivo, nude mouse
[1] = system: human colon cancer cell line (HCT116); assay: Anti-tumor effect on subcutaneous transplant model of HCT116; settings: 6.25-200 mg/kg orally twice a day for 14 days
Experimental: Human non-small-cell lung cancer cell line PC9 (obtained from Immuno-Biological laboratories Co., Ltd.), human non-small-cell lung cancer cell line A549 (obtained from Dainippon Pharmaceutical), human colon cancer cell line WiDr (obtained from Dainippon Pharmaceutical) and human colon cancer cell line HCT116 (obtained from ATCC) were cultured in RPMI1640 (containing 10% FBS) in a 5% carbon dioxide incubator at 37° C. to about 80% confluence, and the cells were collected with trypsin-EDTA. Using a phosphate buffer for PC9, WiDr and HCT116 and a 50% matrigel-containing phosphate buffer for A549, 5×10^7 cells/mL suspensions were prepared, respectively. Then, 0.1 mL each of the resulting cell suspensions was subcutaneously transplanted to the side of a nude mouse.
For PC9, 8 days after the transplantation, E7820 was orally administered for 50 mg/kg, 100 mg/kg or 200 mg/kg twice a day for 14 days. For A549, 24 days after the transplantation, E7820 was orally administered for 50 mg/kg or 200 mg/kg twice a day for 7 days. For WiDr, 11 days after the transplantation, E7820 was orally administered for 50 mg/kg, 100 mg/kg or 200 mg/kg twice a day for 14 days. […]
The major and minor axes of tumors were measured with Digimatic caliper (Mitsutoyo), and tumor volumes and relative tumor volumes were calculated according to the following formulae. […]

[2] = system: EGFR1; assay: EGFR1 expression and phosphorylation level in PC9 subcutaneous transplant model (western blotting); settings: for Phosphorylation level of EGFR1 (% of control) / EGFR1 expression level (% of control): PC9 tumor in nude mouse; for Phosphorylation level of EGFR1 (% of control): anti-EGFR pY1068 western blotting
Experimental: PC9 was cultured in RPMI1640 (containing 10% FBS) in a 5% carbon dioxide incubator to about 80% confluence. The cells were collected with trypsin-EDTA according to a routine procedure and 5×10^7 cells/mL suspension was prepared with a phosphate buffer. Then, 0.1 mL each of the resulting suspension was subcutaneously transplanted to the side of a nude mouse. Eight days after the transplantation, E7820 was orally administered for 50 mg/kg or 200 mg/kg twice a day for a week. One week after the start of sadministration, tumors were removed to prepare tumor cell lysates with various protease inhibitors and a cell lysis solution containing 10% glycerol and 1% Triton X-100 in ice. For each tumor cell lysate, an equal amount of protein was fractionated by SDS-PAGE and transferred onto a nitrocellulose membrane (Hybond ECL, Amersham Biosciences). Then, western blotting was performed by using an anti-EGFR1 antibody (Santa Cruz Biotechnology) or an anti-EGFR pY1068 antibody (anti-phosphorylated-EGFR1 antibody) (Cell Signaling) and horse radish peroxidase-labeled anti-mouse IgG antibody (secondary antibody) (Cell Signaling) according to a routine procedure.
(§1) Detection and quantification of each band were carried out as follows. First, each band was forced to chemically develop a color with Chemiluminescent Substrate (PIERCE), which was then captured as a digital image with Image Master VDS-CL (Amersham Pharmacia Biotech, Tokyo). The digital images were saved as TIF files and each band was numerically converted with Image Master total Lab (version 1.00, Amersham Pharmacia Biotech, Tokyo).

[3] = system: EGFR1; assay: EGFR1 expression level in HCT116 subcutaneous transplant model (western blotting); settings: for EGFR1 expression level (% of control) HCT116: HCT116 tumor in nude mouse
Experimental: (§2) HCT116 or WiDr was cultured in RPMI1640 (containing 10% FBS) in a 5% carbon dioxide incubator to about 80% confluence. The cells were collected with trypsin-EDTA according to a routine procedure and 5×10^7 cells/mL suspensions were prepared with a phosphate buffer. Then, 0.1 mL each of the resulting suspension was subcutaneously transplanted to the side of a nude mouse.
(§3) For HCT116, 23 days after the transplantation, E7820 was orally administered for 12.5 mg/kg, 50 mg/kg or 200 mg/kg twice a day for 3 days. On the other hand, for WiDr, 18 days after the transplantation, E7820 was orally administered for 50 mg/kg or 200 mg/kg twice a day for 7 days. Four days after the start of administration for HCT116 and 8 days after the start of administration for WiDr, tumors were removed to prepare tumor cell lysates with various protease inhibitors and a cell lysis solution containing 10% glycerol and 1% Triton X-100 in ice. For each tumor cell lysate, an equal amount of protein was fractionated by SDS-PAGE and transferred onto a nitrocellulose membrane (Hybond ECL, Amersham Biosciences). Then, western blotting was performed by using an anti-EGFR1 antibody (Santa Cruz Biotechnology) and horse radish peroxidase-labeled anti-mouse IgG antibody (secondary antibody) (Cell Signaling) according to a routine procedure.
as §1, with “and” for “and each band was”

[4] = system: EGFR1; assay: EGFR1 expression level in WiDr subcutaneous transplant model (western blotting); settings: for EGFR1 expression level (% of control) WiDr: WiDr tumor in nude mouse
Experimental: as §2, §3
as §1, with “and” for “and each band was”

[5] = PC9 transplanted tumors, dose-dependent, western blotting

For `Cc1ccc(NS(=O)(=O)c2cccc(C#N)c2)c2[nH]cc(C#N)c12` [E7820, N-(3-cyano-4-methyl-1H-indole-7-yl)-3-cyanobenzenesulfonamide], the “Anti-tumor effect (relative tumor volume)” value [1] was “stronger anti-tumor effects”, the “Effect on EGFR1 expression level (in words)” value [2, 5] was “decreased the EGFR1 expression level” and the “Effect on phosphorylation of EGFR1 (in words)” value [2, 5] was “inhibited phosphorylation of EGFR1”. The “Phosphorylation level of EGFR1 (% of control)” value ([2]; 50 mg/kg orally twice a day for a week) was 59 % of control, the “EGFR1 expression level (% of control)” value ([2]; 50 mg/kg orally twice a day for a week, western blotting) was 63 % of control and the “Phosphorylation level of EGFR1 (% of control)” value ([2]; 200 mg/kg orally twice a day for a week) was 51 % of control. For the same compound, the “EGFR1 expression level (% of control)” value ([2]; 200 mg/kg orally twice a day for a week, western blotting) was 40 % of control, the “Effect on EGFR1 expression level (in words)” value ([3]; HCT116 transplanted tumors, dose-dependent) was “decreased the EGFR1 expression level” and the “EGFR1 expression level (% of control) HCT116” value ([3]; 12.5 mg/kg orally twice a day for 3 days) was 37 % of control. For the same compound, the “EGFR1 expression level (% of control) HCT116” value ([3]; 50 mg/kg orally twice a day for 3 days) was 47 % of control, the “EGFR1 expression level (% of control) HCT116” value ([3]; 200 mg/kg orally twice a day for 3 days) was 42 % of control and the “Effect on EGFR1 expression level (in words)” value ([4]; WiDr transplanted tumors) was “did not change the EGFR1 expression level”. For the same compound, the “EGFR1 expression level (% of control) WiDr” value ([4]; 50 mg/kg orally twice a day for 7 days) was 117 % of control and the “EGFR1 expression level (% of control) WiDr” value ([4]; 200 mg/kg orally twice a day for 7 days) was 121 % of control.
